# System: yeast (wild type, tif1 or tif2 deletion mutants)
# Assay: Yeast growth inhibition
# Type: cell-based
# Conditions: final concentration ˜1 mM
# From the text: For cytotoxic and cytostatic small molecules, deletion mutants in their target often would have increased sensitivity to the drug (and overexpression could decrease sensitivity). Indeed, this is the basis for the elegant haploinsufficiency profiling (HIP) strategy (Giaever et al. (1999) Nat Genet. 21: 278-283). However, an inherent limitation of this type of fitness-based methods is that they are applicable only to drugs that affect cell growth/viability, i.e., cytotoxic or cytostatic drugs. […] A key advantage of DARTS is that it is independent of the drug's biological phenotype, and thus is not limited to the studies of cytotoxic/cytostatic drugs or drugs that induce transcriptional or morphological changes which have been the limitation of previous methods.
smiles,measurement,value
Oc1ccc(C=Cc2cc(O)cc(O)c2)cc1 [resveratrol],inhibition of yeast growth,did not cause detectable inhibition of yeast growth

# From US8703438B2, “Ligand binding stabilization method for drug target identification” (The Regents of the University of California, priority 2008, dated 2014)
